Where two headings read alike, the source gives them in different places.

The subject of one assay is PC-3. The assay can be described thus: MTT cytotoxicity assay, prostate carcinoma cells. The class given is cell-based, human. The note with it: for SI: Selectivity Index from IC50 normal (VERO-B) and IC50 cancer (PC-3). The method, then:
(§1) The cytotoxic activity of the compounds was tested against different mammalian cancer cells, prostate carcinoma cells (PC-3), hepatocellular carcinoma (HepG2) and colon cancer cells (HCT-116) and against African green monkey kidney cell line (Vero-B). The cell lines were obtained from American Type Culture Collection (ATCC). The cells were cultivated at 37° C. and 10% CO2 in DMEM (Lonza, 12-604F) medium supplemented with 10% fetal bovine serum (FBS, Lonza, Cat. No. 14-801E), 100 IU/ml penicillin and 100 μg/ml streptomycin (Lonza, 17-602E). Cisplatin (cis-diamineplatinum (II) dichloride) was used as a positive control and was obtained from Sigma then dissolved in 0.9% saline then stored as 8 mM stock solution at −20° C. The synthesized compounds were solubilized in DMSO and stored at −20° C. 0.5% crystal violet was prepared in Methanol and was used to stain the viable cells (Feoktistova, Geserick et al. 2016). Crystal violet binds to proteins and DNA in the adherent and viable cells so the stain is an indicator for the viability of the treated cells. The viability of the cells were quantified by using MTT reagent (3-(4,5-dimethylthiazol-2-yl)-2,5-diphenyl tetrazolium bromide), which measure the activity of mitochondrial dehydrogenase in the viable cells (Slater, Sawyer et al. 1963, Mosmann 1983).
(§2) Cytotoxicity was further assayed as follows. The cells were seeded in 96-well plate as 5*10^4 cells/mL (100 μL/well). A serial dilutions of tested compounds or cisplatin (100, 30, 10, 3.3, 1.1 or 0.37 μM) was added after overnight incubation of the cells at 37° C. and 5% CO2. DMSO was used as a control (0.1%). The cells were incubated for 48 hrs. After that, 15 μl of MTT (5 mg/mL PBS) was added to each well and incubated for another 4 hours. The formazan crystals were solubilized by 100 μL acidified SDS solution (10% SDS/0.01 M HCl). The absorbance was measured after 14 hours of incubation at 37° C. and 5% CO2 at 570 nm by Biotech plate reader. Each experiment was repeated three times and standard deviation was calculated (±). IC50% was calculated as the concentration that cause 50% inhibition for cell growth. The growth of the cells were monitored and the images were acquired by Gx microscopes (GXMGXD202 Inverted Microscope) (10× Eyepiece) after staining with crystal violet.
For orientation: Formazan colour is commonly taken as a measure of viable cells.

In another assay the test system is HCT-116. The assay can be described thus: MTT cytotoxicity assay, colon cancer cells. It counts as cell-based, human. The following applies: for SI: Selectivity Index from IC50 normal (VERO-B) and IC50 cancer (HCT-116). The method, then:
as §1, §2

A further assay concerns HepG2. The assay can be described thus: MTT cytotoxicity assay, hepatocellular carcinoma cells. The note with it: for SI: Selectivity Index from IC50 normal (VERO-B) and IC50 cancer (HepG2). The class given is cell-based, human. The method, then: as §1, §2
The next assay deals with Vero-B. The experiment in a line: MTT cytotoxicity assay, normal kidney cell line. It counts as cell-based, African green monkey. The note with it: MTT, 48 hrs incubation, read-out: VERO-B (IC50% μM). The method, then:
as §1, §2

The mark [1] stands for this setting: Homo sapiens, PC-3, MTT, 48 hrs incubation, read-out: PC-3 (IC50% μM).
[2] abbreviates: Homo sapiens, PC-3, MTT, 48 hrs incubation, read-out: PC-3 (IC50% μg/ml).
Setting [3] is: Homo sapiens, HCT-116, MTT, 48 hrs incubation, read-out: HCT-116 (IC50% μM).
[4] abbreviates: Homo sapiens, HCT-116, MTT, 48 hrs incubation, read-out: HCT-116 (IC50% μg/ml).
[5] abbreviates: Homo sapiens, HepG2, MTT, 48 hrs incubation, read-out: HepG2 (IC50% μM).
The mark [6] stands for this setting: Homo sapiens, HepG2, MTT, 48 hrs incubation, read-out: HepG2 (IC50% μg/ml).
The mark [7] stands for this setting: Chlorocebus sabaeus, Vero B, Table 1.

`O=C(/C=C/c1ccc(Cl)cc1)[C@H]1[C@H](c2ccc(Cl)cc2)[C@H]2CSCN2[C@]12C(=O)Nc1ccccc12` [Compound 4c, (3R,6′S,7′R,7a′S)-7′-(4-chlorophenyl)-6′-((E)-3-(4-chlorophenyl)acryloyl)-1′,6′,7′,7a′-tetrahydro-3′H-spiro[indoline-3,5′-pyrrolo[1,2-c]thiazol]-2-one]: the IC50 in the assay with PC-3 (setting [1]) stood at 2.7 ± 0.4 µM; in the assay on PC-3 (setting [2]) it was 1.4 µg/mL; in the assay with HCT-116 (setting [3]), 3 ± 0.5 µM; in the assay with HCT-116 (setting [4]) it was 1.6 µg/mL; in the assay on HepG2 (setting [5]), 2 ± 0.5 µM; in the assay on HepG2 (setting [6]), 1 µg/mL. Further, the IC50 with Vero-B (setting [7]) was 7 µM. The results for the SI in the assay with PC-3 and with HepG2 were 2.593 and 3.5, respectively.
As for `O=C(/C=C/c1cccc(Br)c1)[C@H]1[C@H](c2cccc(Br)c2)[C@H]2CSCN2[C@]12C(=O)Nc1ccccc12` [Compound 4l, (3R,6′S,7′R,7a′S)-7′-(3-bromophenyl)-6′-((E)-3-(3-bromophenyl)acryloyl)-1′,6′,7′,7a′-tetrahydro-3′H-spiro[indoline-3,5′-pyrrolo[1,2-c]thiazol]-2-one], the IC50 in the assay on PC-3 (setting [1]) worked out at 1.5 ± 0.5 µM; with PC-3 (setting [2]) it was 0.9 µg/mL; in the assay on HCT-116 (setting [3]) it was 1.57 ± 0.3 µM; in the assay with HCT-116 (setting [4]), 0.95 µg/mL; in the assay with HepG2 (setting [5]) it was 0.9 ± 0.1 µM; in the assay on HepG2 (setting [6]) it was 0.5 µg/mL. Further, the IC50 in the assay with Vero-B (setting [7]) stood at 3 µM. Moreover, the SI was determined as 2 with PC-3, 1.911 in the assay with HCT-116 and 3.333 in the assay with HepG2.
As for `O=C(/C=C/c1ccc(C(F)(F)F)cc1)[C@H]1[C@H](c2ccc(C(F)(F)F)cc2)[C@H]2CSCN2[C@]12C(=O)Nc1ccccc12` [Compound 4n, (3R,6′S,7′R,7a′S)-7′-(4-(trifluoromethyl)phenyl)-6′-((E)-3-(4-(trifluoromethyl)phenyl)acryloyl)-1′,6′,7′,7a′-tetrahydro-3′H-spiro[indoline-3,5′-pyrrolo[1,2-c]thiazol]-2-one], the IC50 with PC-3 (setting [1]) was 1 ± 0.2 µM; with PC-3 (setting [2]), 0.6 µg/mL; with HCT-116 (setting [3]), 2.9 ± 0.4 µM; in the assay on HCT-116 (setting [4]), 1.7 µg/mL; in the assay on HepG2 (setting [5]) it was 0.9 ± 0.2 µM; in the assay on HepG2 (setting [6]), 0.5 µg/mL. Also, the IC50 with Vero-B (setting [7]) was determined as 2.5 µM. In addition, the SI is given as 2.5 in the assay on PC-3, 0.8621 in the assay with HCT-116 and 2.778 with HepG2.
As to `O=C(/C=C/c1ccc(F)cc1)[C@H]1[C@H](c2ccc(F)cc2)[C@H]2CSCN2[C@]12C(=O)Nc1ccc(Br)cc12` [Compound 4p, (3R,6′S,7′R,7a′S)-5-bromo-7′-(4-fluorophenyl)-6′-((E)-3-(4-fluorophenyl)acryloyl)-1′,6′,7′,7a′-tetrahydro-3′H-spiro[indoline-3,5′-pyrrolo[1,2-c]thiazol]-2-one], the IC50 with PC-3 (setting [1]) was 1.5 ± 0.1 µM; in the assay with PC-3 (setting [2]), 0.8 µg/mL; in the assay on HCT-116 (setting [3]), 3.5 ± 0.3 µM; with HCT-116 (setting [4]) it was 2 µg/mL; with HepG2 (setting [5]) it was 0.8 ± 0.1 µM; with HepG2 (setting [6]) it was 0.5 µg/mL. Besides, the IC50 in the assay with Vero-B (setting [7]) stood at 3 µM. In addition, the figures for the SI in the assay with PC-3, in the assay with HCT-116 and in the assay with HepG2 were 2, 0.9571 and 3.75, respectively.
Turning to `O=C(/C=C/c1ccc(F)cc1)[C@H]1[C@H](c2ccc(F)cc2)[C@H]2CSCN2[C@]12C(=O)Nc1ccccc12` [Compound 4m, (3R,6′S,7′R,7a′S)-7′-(4-fluorophenyl)-6′-((E)-3-(4-fluorophenyl)acryloyl)-1′,6′,7′,7a′-tetrahydro-3′H-spiro[indoline-3,5′-pyrrolo[1,2-c]thiazol]-2-one], the IC50 with PC-3 (setting [1]) is 2.5 ± 0.2 µM; in the assay on PC-3 (setting [2]) it was 1.2 µg/mL; with HCT-116 (setting [3]), 5 ± 0.3 µM; with HCT-116 (setting [4]), 2.4 µg/mL; in the assay on HepG2 (setting [5]) it was 2.4 ± 0.4 µM; in the assay with HepG2 (setting [6]) it was 1.2 µg/mL. Besides, the IC50 with Vero-B (setting [7]) amounted to 6 µM. Further, the SI in the assay on PC-3 is given as 2.4; in the assay on HCT-116, 1.2; in the assay with HepG2, 2.5.
For the molecule `N.N.[Cl][Pt][Cl]` [Cisplatin, cis-diamineplatinum (II) dichloride, reference compound], the “PC-3 (IC50% μg/ml)” value with PC-3 (MTT, 48 hrs incubation) came out at 1.5 µg/mL. In addition, the IC50 in the assay with PC-3 (MTT, 48 hrs incubation, read-out: PC-3 (IC50% μM)) was found to be 5 ± 0.5 µM; in the assay on HCT-116 (MTT, 48 hrs incubation, read-out: HCT-116 (IC50% μM)) it was 12.6 ± 2 µM; in the assay on HepG2 (MTT, 48 hrs incubation, read-out: HepG2 (IC50% μM)), 5.5 ± 1 µM; in the assay with Vero-B (Table 1) it was 5 µM; in the assay on Vero-B (Table 2) it was 5 µM; with Vero-B (Table 3), 5 µM. Besides, the SI worked out at 1 in the assay on PC-3, 0.3968 in the assay with HCT-116 and 0.9091 in the assay with HepG2. For the same molecule, in the assay on HCT-116 (MTT, 48 hrs incubation), the “HCT-116 (IC50% μg/ml)” value came to 3.8 µg/mL. Further, the “HepG2 (IC50% μg/ml)” value in the assay with HepG2 (MTT, 48 hrs incubation) stood at 1.7 µg/mL.
For the molecule `O=C(/C=C/c1ccc2ccccc2c1)[C@H]1[C@H](c2ccc3ccccc3c2)[C@H]2CSCN2[C@]12C(=O)Nc1ccccc12` [Compound 4i, (3R,6′S,7′R,7a′S)-7′-(naphthalen-2-yl)-6′-((E)-3-(naphthalen-2-yl)acryloyl)-1′,6′,7′,7a′-tetrahydro-3′H-spiro[indoline-3,5′-pyrrolo[1,2-c]thiazol]-2-one], the IC50 in the assay with PC-3 (setting [1]) turned out to be 2.9 ± 0.2 µM; with PC-3 (setting [2]), 1.6 µg/mL; with HCT-116 (setting [3]) it was 8 ± 0.3 µM; in the assay on HCT-116 (setting [4]) it was 4.4 µg/mL; in the assay on HepG2 (setting [5]), 2.4 ± 1 µM; in the assay with HepG2 (setting [6]) it was 1.3 µg/mL. Moreover, the IC50 in the assay with Vero-B (setting [7]) stood at 7 µM. Further, the values for the SI in the assay with PC-3, in the assay with HCT-116 and in the assay on HepG2 were 2.414, 0.875 and 2.917, respectively.
